The text below walks through data of patent US9518052B2, “Pyrazolopyridines and pyrazolopyrimidines” (Pfizer Inc., priority 2014, dated 2016).

Structures can show the parent of a compound that is named as a salt.

Common to all, as to format: biochemical
What all share (details): Caliper assay at 1 mM ATP

One assay deals with JAK1 (Homo sapiens (Human), UniProt P23458). The assay can be described thus: JAK Caliper Enzyme Assay at 1 mM ATP (JAK1). The protocol:
(§1) JAK Caliper Enzyme Assay at 1 mM ATP
(§2) Test article was solubilized in dimethyl sulfoxide (DMSO) to a stock concentration of 30 mM. An 11-point half log dilution series was created in DMSO with a top concentration of 600 μM. […] The compound plates were diluted 1 to 60 resulting in a top final assay compound concentration of 10 μM and a 2% DMSO concentration.
(§3) Test article and assay controls were added to a 384-well plate. Reaction mixtures contained 20 mM HEPES, pH 7.4, 10 mM magnesium chloride, 0.01% bovine serum albumin (BSA), 0.0005% Tween 20, 1 mM ATP and 1 μM peptide substrate. […] Enzyme concentrations and incubation times were optimized for each new enzyme preps and were modified slightly over time to ensure 20%-30% phosphorylation. The assays were stopped with a final concentration of 10 mM EDTA, 0.1% Coating Reagent and 100 mM HEPES, pH=7.4. The assay plates were placed on a Caliper Life Science Lab Chip 3000 (LC3000) instrument, and each well was sampled using appropriate separation conditions to measure the unphosphorylated and phosphorylated peptide.

Another assay addresses JAK3 (Homo sapiens (Human), UniProt P52333). Nature of the assay: JAK Caliper Enzyme Assay at 1 mM ATP (JAK3). The protocol: as §1, §2, §3
The target of a further assay is TYK2 (Homo sapiens (Human), UniProt P29597). The assay can be described thus: JAK Caliper Enzyme Assay at 1 mM ATP (TYK2). Here is the method: as §1, §2, §3
For the next assay, the target named is JAK2 (Homo sapiens (Human), UniProt O60674). The assay can be described thus: JAK Caliper Enzyme Assay at 1 mM ATP (JAK2). The protocol: as §1, §2, §3
Chain of JAK2 (O60674 whole entry, species assumed): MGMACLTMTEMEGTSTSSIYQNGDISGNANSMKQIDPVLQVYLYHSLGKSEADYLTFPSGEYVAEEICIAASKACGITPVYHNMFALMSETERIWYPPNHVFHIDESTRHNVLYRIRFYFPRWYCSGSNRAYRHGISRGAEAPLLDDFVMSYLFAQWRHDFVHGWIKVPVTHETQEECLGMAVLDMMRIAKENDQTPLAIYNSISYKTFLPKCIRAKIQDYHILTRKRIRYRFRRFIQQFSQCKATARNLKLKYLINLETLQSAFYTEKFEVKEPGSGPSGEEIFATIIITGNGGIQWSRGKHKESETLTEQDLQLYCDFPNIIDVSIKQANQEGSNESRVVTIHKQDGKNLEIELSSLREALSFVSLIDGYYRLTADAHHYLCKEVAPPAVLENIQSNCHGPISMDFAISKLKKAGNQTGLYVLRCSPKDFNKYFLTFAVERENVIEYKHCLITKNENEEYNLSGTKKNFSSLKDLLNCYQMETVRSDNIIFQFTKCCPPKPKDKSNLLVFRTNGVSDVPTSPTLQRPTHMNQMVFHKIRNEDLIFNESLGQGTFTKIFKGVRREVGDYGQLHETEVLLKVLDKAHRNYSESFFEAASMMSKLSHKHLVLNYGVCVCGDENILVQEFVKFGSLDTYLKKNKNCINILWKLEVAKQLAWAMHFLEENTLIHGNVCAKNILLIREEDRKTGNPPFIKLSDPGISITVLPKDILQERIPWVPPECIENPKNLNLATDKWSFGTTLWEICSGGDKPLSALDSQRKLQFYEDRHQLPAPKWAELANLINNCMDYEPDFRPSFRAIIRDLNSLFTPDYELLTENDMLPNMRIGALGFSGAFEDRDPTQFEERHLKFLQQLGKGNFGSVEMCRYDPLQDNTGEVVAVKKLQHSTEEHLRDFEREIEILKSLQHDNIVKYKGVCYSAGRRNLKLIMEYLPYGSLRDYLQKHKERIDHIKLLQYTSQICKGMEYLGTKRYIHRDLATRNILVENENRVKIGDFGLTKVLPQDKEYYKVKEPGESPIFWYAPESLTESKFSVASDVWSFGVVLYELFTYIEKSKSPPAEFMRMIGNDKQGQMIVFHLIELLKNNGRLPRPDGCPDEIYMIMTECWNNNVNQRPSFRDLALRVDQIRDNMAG

Chain of JAK3 (P52333 whole entry, species assumed): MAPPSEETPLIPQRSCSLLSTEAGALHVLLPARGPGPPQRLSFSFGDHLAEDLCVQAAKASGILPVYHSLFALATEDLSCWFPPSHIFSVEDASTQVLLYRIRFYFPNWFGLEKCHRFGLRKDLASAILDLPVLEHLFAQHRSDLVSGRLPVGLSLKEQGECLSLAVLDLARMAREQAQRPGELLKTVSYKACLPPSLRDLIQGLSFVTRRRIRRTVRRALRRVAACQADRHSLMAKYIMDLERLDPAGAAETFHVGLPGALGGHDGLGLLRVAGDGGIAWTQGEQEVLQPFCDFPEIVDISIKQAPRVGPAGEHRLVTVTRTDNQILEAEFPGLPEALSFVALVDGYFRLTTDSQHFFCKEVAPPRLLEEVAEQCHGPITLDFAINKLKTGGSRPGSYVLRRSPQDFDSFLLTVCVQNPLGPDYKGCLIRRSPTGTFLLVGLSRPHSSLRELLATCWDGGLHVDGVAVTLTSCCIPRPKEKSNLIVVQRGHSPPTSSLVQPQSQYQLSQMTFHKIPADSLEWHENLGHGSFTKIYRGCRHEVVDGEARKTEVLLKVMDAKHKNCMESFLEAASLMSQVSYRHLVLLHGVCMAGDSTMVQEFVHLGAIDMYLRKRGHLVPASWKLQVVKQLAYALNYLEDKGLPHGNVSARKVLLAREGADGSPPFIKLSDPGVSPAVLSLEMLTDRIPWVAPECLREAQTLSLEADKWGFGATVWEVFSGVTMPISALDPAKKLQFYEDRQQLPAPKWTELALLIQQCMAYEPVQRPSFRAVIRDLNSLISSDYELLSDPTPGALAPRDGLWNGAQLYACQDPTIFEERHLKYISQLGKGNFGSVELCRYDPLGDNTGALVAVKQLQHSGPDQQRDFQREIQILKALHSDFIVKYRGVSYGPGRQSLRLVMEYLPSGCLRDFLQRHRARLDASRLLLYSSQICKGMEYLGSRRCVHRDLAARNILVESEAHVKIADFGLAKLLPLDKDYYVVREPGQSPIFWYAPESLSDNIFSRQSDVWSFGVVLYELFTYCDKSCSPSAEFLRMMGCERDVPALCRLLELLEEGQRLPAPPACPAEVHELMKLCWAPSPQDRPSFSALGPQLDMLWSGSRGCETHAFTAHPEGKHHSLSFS
Chain of TYK2 (P29597 whole entry, species assumed): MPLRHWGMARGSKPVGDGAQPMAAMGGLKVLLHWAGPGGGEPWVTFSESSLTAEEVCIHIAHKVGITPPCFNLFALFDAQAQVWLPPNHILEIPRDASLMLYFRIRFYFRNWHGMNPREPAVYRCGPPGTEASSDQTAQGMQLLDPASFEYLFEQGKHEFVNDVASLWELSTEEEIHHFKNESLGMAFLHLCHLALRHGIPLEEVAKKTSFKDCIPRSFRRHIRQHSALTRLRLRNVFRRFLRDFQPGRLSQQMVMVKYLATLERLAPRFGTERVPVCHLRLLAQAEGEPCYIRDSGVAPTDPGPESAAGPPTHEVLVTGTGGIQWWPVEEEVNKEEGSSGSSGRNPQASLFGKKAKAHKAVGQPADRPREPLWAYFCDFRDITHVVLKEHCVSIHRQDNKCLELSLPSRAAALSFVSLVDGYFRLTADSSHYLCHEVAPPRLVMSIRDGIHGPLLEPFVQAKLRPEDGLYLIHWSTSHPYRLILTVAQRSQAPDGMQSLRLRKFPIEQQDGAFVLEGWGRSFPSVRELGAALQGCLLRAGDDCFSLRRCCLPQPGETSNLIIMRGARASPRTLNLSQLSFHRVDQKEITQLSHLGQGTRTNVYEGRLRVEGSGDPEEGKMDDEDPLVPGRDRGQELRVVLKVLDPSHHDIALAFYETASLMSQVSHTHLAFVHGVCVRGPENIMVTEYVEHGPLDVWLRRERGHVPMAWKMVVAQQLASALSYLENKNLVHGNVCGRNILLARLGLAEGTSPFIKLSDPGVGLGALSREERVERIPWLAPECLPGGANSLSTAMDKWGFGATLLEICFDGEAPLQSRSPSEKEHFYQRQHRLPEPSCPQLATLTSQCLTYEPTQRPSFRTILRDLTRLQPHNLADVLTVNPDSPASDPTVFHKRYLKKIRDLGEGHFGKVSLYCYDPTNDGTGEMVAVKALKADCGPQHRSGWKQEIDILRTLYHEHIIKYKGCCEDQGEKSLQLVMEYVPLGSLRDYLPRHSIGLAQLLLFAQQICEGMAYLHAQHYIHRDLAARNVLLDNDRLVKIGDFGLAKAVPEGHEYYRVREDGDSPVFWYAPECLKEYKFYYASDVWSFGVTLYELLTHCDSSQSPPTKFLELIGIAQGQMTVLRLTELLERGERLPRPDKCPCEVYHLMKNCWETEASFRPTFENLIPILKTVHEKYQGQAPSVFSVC
Chain of JAK1 (P23458 whole entry, species assumed): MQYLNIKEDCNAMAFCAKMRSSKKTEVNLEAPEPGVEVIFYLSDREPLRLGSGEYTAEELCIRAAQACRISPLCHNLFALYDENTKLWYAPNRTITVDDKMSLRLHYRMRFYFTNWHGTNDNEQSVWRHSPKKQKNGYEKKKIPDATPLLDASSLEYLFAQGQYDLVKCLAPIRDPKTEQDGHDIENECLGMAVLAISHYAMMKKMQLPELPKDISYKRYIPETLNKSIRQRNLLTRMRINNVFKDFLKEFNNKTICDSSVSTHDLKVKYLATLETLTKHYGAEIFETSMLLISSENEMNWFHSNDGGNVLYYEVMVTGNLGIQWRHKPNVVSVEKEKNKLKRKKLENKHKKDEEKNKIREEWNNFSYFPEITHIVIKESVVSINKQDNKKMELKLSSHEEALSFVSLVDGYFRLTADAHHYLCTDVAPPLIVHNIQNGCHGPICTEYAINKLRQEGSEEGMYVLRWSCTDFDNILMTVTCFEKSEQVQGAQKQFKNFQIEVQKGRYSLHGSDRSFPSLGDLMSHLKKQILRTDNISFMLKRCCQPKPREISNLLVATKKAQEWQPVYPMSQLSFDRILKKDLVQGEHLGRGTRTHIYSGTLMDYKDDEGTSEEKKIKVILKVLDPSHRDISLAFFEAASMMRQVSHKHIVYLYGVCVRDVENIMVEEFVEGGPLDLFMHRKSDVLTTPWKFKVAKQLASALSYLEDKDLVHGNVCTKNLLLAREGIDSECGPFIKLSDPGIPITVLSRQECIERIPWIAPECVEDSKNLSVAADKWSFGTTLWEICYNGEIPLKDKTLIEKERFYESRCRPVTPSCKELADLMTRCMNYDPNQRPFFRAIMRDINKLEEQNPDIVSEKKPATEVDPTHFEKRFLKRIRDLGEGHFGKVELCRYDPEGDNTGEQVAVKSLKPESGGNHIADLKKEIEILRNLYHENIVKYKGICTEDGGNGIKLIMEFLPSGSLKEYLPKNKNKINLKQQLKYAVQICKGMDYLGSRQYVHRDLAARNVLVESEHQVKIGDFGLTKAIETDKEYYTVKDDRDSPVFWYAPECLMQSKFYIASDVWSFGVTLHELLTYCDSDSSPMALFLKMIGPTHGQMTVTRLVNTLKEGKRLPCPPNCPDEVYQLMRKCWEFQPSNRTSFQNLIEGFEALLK

With `CCc1cc(O)c(F)cc1-c1cc2[nH]nc(C(=O)NC)c2c(NCCc2ccc(O)cc2)n1` [Example 4, 6-(2-ethyl-5-fluoro-4-hydroxyphenyl)-4-{[2-(4-hydroxyphenyl)ethyl]amino}-N-methyl-1H-pyrazolo[4,3-c]pyridine-3-carboxamide], the IC50 (usually the concentration at which inhibition is half-maximal) on JAK1 worked out at 1.7 nM; against JAK3 it was 26.6 nM; against TYK2, 15.3 nM.
The like results for `CCc1cc(O)c(F)cc1-c1cc2[nH]nc(C(=O)NC)c2c(NCc2ccc(O)cc2N(C)S(C)(=O)=O)n1` [Example 29, 6-(2-Ethyl-5-fluoro-4-hydroxyphenyl)-4-({4-hydroxy-2-[methyl(methylsulfonyl)amino]benzyl}amino)-N-methyl-1H-pyrazolo[4,3-c]pyridine-3-carboxamide] were, in that order, 1.5 nM, 33.2 nM and 19 nM.
For the molecule `CNC(=O)c1n[nH]c2cc(-c3cc(F)c(O)cc3C3CC3)nc(NCc3ccccc3N(C)S(C)(=O)=O)c12` [Example 37, 6-(2-cyclopropyl-5-fluoro-4-hydroxyphenyl)-N-methyl-4-({2-[methyl(methyl-sulfonyl)amino]benzyl}amino)-1H-pyrazolo[4,3-c]pyridine-3-carboxamide], the IC50 at JAK1 was found to be 5 nM; at JAK3, 52 nM; at TYK2, 169 nM.
The like results for `CN(c1ccc(O)cc1CNc1nc(-c2cc(F)c(O)cc2CC(F)(F)F)cc2[nH]nc(C(N)=O)c12)S(=O)(=O)c1ccccc1` [Example 42, 6-[5-fluoro-4-hydroxy-2-(2,2,2-trifluoroethyl)phenyl]-4-({5-hydroxy-2-[methyl(phenylsulfonyl)-amino]benzyl}amino)-1H-pyrazolo[4,3-c]pyridine-3-carboxamide] were, in that order, 25.3 nM, 534 nM and 233 nM.
For `CNC(=O)c1n[nH]c2cc(-c3cc(F)c(O)cc3CC(F)(F)F)nc(NCc3nccnc3N(C)S(=O)(=O)c3ccccc3)c12` [Example 44, 6-[5-fluoro-4-hydroxy-2-(2,2,2-trifluoroethyl)phenyl]-N-methyl-4-[({3-[methyl(phenylsulfonyl)amino]pyrazin-2-yl}methyl)amino]-1H-pyrazolo[4,3-c]pyridine-3-carboxamide], in that order: 25.8 nM, 293 nM and 999 nM.
On to `CNC(=O)c1n[nH]c2cc(-c3cc(F)c(O)cc3CC(F)(F)F)nc(NCc3cnccc3N(C)S(C)(=O)=O)c12` [Example 48, 6-[5-fluoro-4-hydroxy-2-(2,2,2-trifluoroethyl)phenyl]-N-methyl-4-[({4-[methyl(methylsulfonyl)amino]pyridin-3-yl}methyl)amino]-1H-pyrazolo[4,3-c]pyridine-3-carboxamide], for which the figures for the IC50 against JAK1, against JAK2 and against JAK3 were 67.6 nM, 188 nM and 148 nM, respectively.
The like results for `CNC(=O)c1n[nH]c2cc(-c3cc(F)c(O)cc3C3CC3)nc(NCc3cccnc3N(C)S(C)(=O)=O)c12` [Example 49, 6-(2-cyclopropyl-5-fluoro-4-hydroxyphenyl)-N-methyl-4-[({2-[methyl(methylsulfonyl)amino]pyridin-3-yl}methyl)amino]-1H-pyrazolo[4,3-c]pyridine-3-carboxamide] were, in that order, 78 nM, 181 nM and 248 nM.
On to `CNC(=O)c1n[nH]c2cc(-c3cc(F)c(O)cc3CC(F)(F)F)nc(NCc3cccnc3N(C)S(C)(=O)=O)c12` [Example 53, 6-[5-fluoro-4-hydroxy-2-(2,2,2-trifluoroethyl)phenyl]-N-methyl-4-[({2-[methyl(methylsulfonyl)amino]pyridin-3-yl}methyl)amino]-1H-pyrazolo[4,3-c]pyridine-3-carboxamide], for which the results for the IC50 against JAK1, against JAK3 and against TYK2 were 9.7 nM, 102 nM and 243 nM, respectively.
Consider `CNC(=O)c1n[nH]c2cc(-c3cc(F)c(O)cc3CC(F)(F)F)nc(NCc3ccccc3CS(N)(=O)=O)c12` [Example 64, 6-[5-fluoro-4-hydroxy-2-(2,2,2-trifluoroethyl)phenyl]-N-methyl-4-{[2-(sulfamoylmethyl)benzyl]amino}-1H-pyrazolo[4,3-c]pyridine-3-carboxamide], for which the IC50 against JAK1 is 3.3 nM; on JAK3, 36.9 nM; at TYK2, 153 nM.
For `Cc1ccc(N(C)S(C)(=O)=O)c(CNc2nc(-c3cc(F)c(O)cc3CC(F)(F)F)cc3[nH]nc(C(N)=O)c23)c1` [Example 81, 6-[5-fluoro-4-hydroxy-2-(2,2,2-trifluoroethyl)phenyl]-4-({5-methyl-2-[methyl(methylsulfonyl)-amino]benzyl}amino)-1H-pyrazolo[4,3-c]pyridine-3-carboxamide], in that order: 4.7 nM, 103 nM and 298 nM.
For `CCN(c1ccccc1CNc1nc(-c2cc(F)c(O)cc2CC(F)(F)F)cc2[nH]nc(C(N)=O)c12)S(=O)(=O)CC` [Example 82, 4-((2-(N-ethylethylsulfonamido)benzyl)amino)-6-(5-fluoro-4-hydroxy-2-(2,2,2-trifluoroethyl)phenyl)-1H-pyrazolo[4,3-c]pyridine-3-carboxamide], in that order: 13.7 nM, 313 nM and 121 nM.
As to `CN(c1ccccc1CNc1nc(-c2cc(F)c(O)cc2CC(F)(F)F)nc2[nH]nc(C(N)=O)c12)S(C)(=O)=O` [Example 98, 6-(5-Fluoro-4-hydroxy-2-(2,2,2-trifluoroethyl)phenyl)-4-((2-(N-methylmethylsulfonamido)benzyl)amino)-1H-pyrazolo[3,4-d]pyrimidine-3-carboxamide], the figures for the IC50 against JAK1, at JAK3 and at TYK2 were 4.9 nM, 39.6 nM and 600 nM, respectively.
Regarding `CS(=O)(=O)N(CCO)c1ccccc1CNc1nc(-c2cc(F)c(O)cc2CC(F)(F)F)nc2[nH]nc(C(N)=O)c12` [Example 101, 6-(5-fluoro-4-hydroxy-2-(2,2,2-trifluoroethyl)phenyl)-4-((2-(N-(2-hydroxyethyl)methylsulfonamido)benzyl)amino)-1H-pyrazolo[3,4-d]pyrimidine-3-carboxamide], the IC50 against JAK1 came out at 10.5 nM; at JAK3, 51.1 nM.
Turning to `CCc1cc(O)ccc1-c1cc2[nH]ncc2c(N2CC(Oc3cc(C#N)ccc3Cl)C2)n1` [Example 120, 4-chloro-3-({1-[6-(2-ethyl-4-hydroxyphenyl)-1H-pyrazolo[4,3-c]pyridin-4-yl]azetidin-3-yl}oxy)benzonitrile formate], the IC50 against JAK1 was found to be 10.8 nM; at JAK2, 128 nM; against JAK3, 89.2 nM.
In the case of `CCc1cc(O)ccc1-c1cc2[nH]ncc2c(NCc2ccccc2N(C)S(C)(=O)=O)n1` [Example 125, N-[2-({[6-(2-Ethyl-4-hydroxyphenyl)-1H-pyrazolo[4,3-c]pyridin-4-yl]amino}methyl)phenyl]-N-methylmethanesulfonamide hydrochloride], the IC50 against JAK1 stood at 0.2 nM; on JAK3, 4.4 nM; at TYK2 it was 5.6 nM.
The like results for `CCc1cc(O)c(F)cc1-c1cc2[nH]ncc2c(N(CCc2ccc(OC)c(OC)c2)Cc2ccccc2N(C)S(C)(=O)=O)n1` [Example 129, N-[2-({[2-(3,4-dimethoxyphenyl)ethyl][6-(2-ethyl-5-fluoro-4-hydroxyphenyl)-1H-pyrazolo[4,3-c]pyridin-4-yl]amino}methyl)phenyl]-N-methylmethanesulfonamide hydrochloride] were, in that order, 11.6 nM, 180 nM and 56.6 nM.
The like results for `Oc1cc(CC(F)(F)F)c(-c2nc(NCC3CC3)c3cn[nH]c3n2)cc1F` [Example 151, 4-{4-[(cyclopropylmethyl)-amino]-1H-pyrazolo[3,4-d]pyrimidin-6-yl}-2-fluoro-5-(2,2,2-trifluoroethyl)phenol] were, in that order, 33.9 nM, 125 nM and 2980 nM.
For `CCCCNc1nc(-c2cc(F)c(O)cc2CC(F)(F)F)nc2[nH]ncc12` [Example 154, 4-[4-(butylamino)-1H-pyrazolo[3,4-d]pyrimidin-6-yl]-2-fluoro-5-(2,2,2-trifluoroethyl)phenol], in that order: 77.6 nM, 228 nM and 5140 nM.
In the case of `CN(c1ccc(O)cc1CNc1nc(-c2cc(F)c(O)cc2CC(F)(F)F)nc2[nH]nc(-c3nnc(C4CCN(C(N)=O)CC4)[nH]3)c12)S(C)(=O)=O` [Example 167, 4-(5-{6-[5-Fluoro-4-hydroxy-2-(2,2,2-trifluoroethyl)phenyl]-4-({5-hydroxy-2-[methyl(methylsulfonyl)amino]benzyl}amino)-1H-pyrazolo[3,4-d]pyrimidin-3-yl}-4H-1,2,4-triazol-3-yl)piperidine-1-carboxamide], the IC50 came to 4.1 nM at JAK1, 47.4 nM on JAK3 and 310 nM against TYK2.
As for “N-benzyl-2-[6-(2-ethyl-4-hydroxyphenyl)-1H-pyrazolo[4,3-c]pyridin-4-yl]-1,2,3,4-tetrahydroiso-quinoline-5-carboxamide formate [Example 117]”, the figures for the IC50 on JAK3 and at TYK2 were 41.6 nM and 425 nM, respectively.
